What all share (type): cell-based
The subject of one test is NF-κB. As to the kind of experiment: NF-κB luciferase reporter assay in RAW 264.7 macrophages. The settings on record: for IC50: RAW264.7, 3 h, read-out: NF-kB inhibitory activity IC50 μM. The procedure:
RAW 264.7 cells stably expressing a 3×NFkB response element-drive luciferase reporter were seeded into 96 well plates in sera-free medium (Optimem) 18 hours prior to compound application. Compounds of the invention were prepared by first making 100 mM stock solutions in EtOH. […] Cells were then stimulated with 200 ng/ml LPS or vehicle control for 3 hours in the presence of the compounds of the invention. A set of six vehicles was left unstimulated with LPS in order to measure the assay floor. AlamarBlue viability dye (Invitrogen) was added to cells simultaneously with the delivery of LPS (final AlamarBlue concentration of 10%). After the 3 h incubation period with LPS, cell viability was measured by reading fluorescence (excitation 550 nm, emission 595 nm) with a Perkin Elmer Victor V plate reader. Then cell media was aspirated from each well. Luciferase signal was then developed by addition of the Britelite Plus reagent (Perkin Elmer). Luciferase activity was measured with the Perkin Elmer Victor V plate reader. NE-κB activity was expressed as a percent of the vehicle control wells (stimulated with LPS). Compounds were tested at 6 dose point titrations in triplicate to determine IC50 values.
A general note: A reporter such as luciferase makes a cellular process visible.

In a further test the test system is HBV. Briefly: HBV assay, extracellular HBV DNA in HepG2 2.2.15 cells. The settings on record: Hepatitis B virus, read-out: EC90 against HBV. The procedure: Extracellular HBV DNA analysis was carried out using the protocols outlined in Innaimo et al, Antimicrobial Agents and Chemotherapy 1997, 41, p. 1444-1448 and Korba and Milman Antiviral Research 1991, 15, p. 217-228. HepG2 2.2.15 cells were maintained in RPMI 1640 supplemented with 2 mM L-glutamine, 50 U of penicillin per mL, 50 μg of streptomycin per mL, 500 μg of G418 per mL, and 5% fetal bovine serum. Stock solutions of the test compounds were prepared according to the procedures outlined in example 3. HepG2 2.2.15 cells were plated at a density of 5×10^5 cells per well on 12-well Biocoat collagen-coated plates (Collaborative Biosciences, Beford, Mass.) and were maintained in a confluent state for 2 to 3 days before being overlaid with 1 mL of medium spiked with the antiviral compound. Compound-containing medium was changed daily for 9 days. On day 10, the media were collected and clarified by pelleting the cellular debris with a 5-min microcentrifuge spin at 16,000×g. Supernatants were processed for HBV DNA by the alkaline lysis method. Released HBV DNA was immobilized on a Magnagraph nylon membrane (Micron Separatations, Inc., Westborough, Mass.) by sing a dot blot manifold full-length HBV genome template excised from plasmid pTHBV-1 (American Type Culture Collection, Rockville, Md.) and ^32P-radiolabeled to a specific activity of 2×10^9 cpm/μg by using a random primer kit (Life Technologies, Grand Island, N.Y.). Quantification was performed on a Storm 860 phosphorimager (Molecular Dynamics, Sunnyvale, Calif.). All drug concentrations were tested in duplicate or triplicate, with antiviral effects being scored as reductions in the amount of HBV DNA present in the medium relative to that in untreated controls after the 10-day treatment period. Using the assay, the following EC90 values against HBV were obtained: […]

A further test deals with HIV-1IIIB strain. Briefly: HIV-1 cytoprotection assay (CEM-SS cells, MTS dye reduction). The settings on record: for IC50 HIV-1IIIB strain (nM): CEM-SS cells, 6 days, MTS. The protocol: Cytoprotection assays are commonly used for evaluating the antiviral efficacy of test compounds against a variety of viruses in different cell lines. […] Briefly, virus and cells are mixed in the presence of test compound and incubated for 6 days. […] Each assay plate contains cell control wells (cells only), virus control wells (cells plus virus), compound toxicity control wells (cells plus compound only), compound colorimetric control wells (compound only), as well as experimental wells (compound plus cells plus virus). Cytoprotection and compound cytotoxicity are assessed by MTS (CellTiter®96 Reagent, Promega, Madison Wis.) dye reduction. […] Each assay includes the HIV reverse transcriptase inhibitor AZT as a positive control.
CEM-SS cells were obtained from the NIH AIDS Research and Reference Reagent Program and are routinely passaged in T-75 flasks using standard tissue culture techniques based on the specifications provided by the supplier. On the day preceding the assay, the cells are split 1:2 to assure they are in an exponential growth phase at the time of infection. Total cell number and percent viability determinations are performed using a hemacytometer and trypan blue exclusion. […] The cells are re-suspended at 5×10^4 cells/mL in tissue culture medium and added to the drug-containing 96-well microtiter plates in a volume of 50 μl.
The viruses used for this assay are CXCR4-tropic laboratory virus strains. The most commonly used strains are HIV-1RF and HIV-1IIIB (each obtained from the NIH AIDS Research and Reference Reagent Program). For each assay, a pre-titered aliquot of virus is removed from the freezer (−80° C.) and allowed to thaw slowly to room temperature in a biological safety cabinet. The virus is re-suspended and diluted into tissue culture medium such that the amount of virus added to each well in a volume of 50 μl is the amount determined to give between 85 to 95% cell killing at 6 days post-infection.
Each plate contains cell control wells (cells only), virus control wells (cells plus virus), drug cytotoxicity wells (cells plus drug only), drug colorimetric control wells (drug only), background control wells (media only), as well as experimental wells (drug plus cells plus virus). Samples are evaluated for antiviral efficacy with triplicate measurements using 6 concentrations at half-log dilutions (12 concentrations can also be performed) in order to determine IC50 values and with duplicate measurements to determine cellular cytotoxicity, if detectable.
100% EtOH is added to the compounds of the invention such that the EtOH stock concentration is 50 mM. […] (VWR Ultrasonics Cleaner, Model #B8500A-DTH with “Sonics Power” set to HI); e) The 1:2 serial dilutions of the 1 mM 10× stock solution with FBS/2% EtOH are prepared such that the concentrations of the 10× stock solutions are 1 mM, 0.5 mM, 0.25 mM, etc., in FBS with 2% EtOH. Medium is aspirated off cells and replaced with serum free medium.
A general note: Formazan colour is commonly taken as a measure of viable cells.

The subject of test [1] is HCV Con 1 subgenomic replicon. Briefly: HCV replicon assay (Huh-7 GS4.1 cells, NS4A ELISA). The settings on record: Hepatitis C virus, Huh-7 GS4.1 replicon cells, 72 hours. The procedure: The HCV replicon assay was carried out in the same manner described in WO 2010/018140, WO 2011/123586, Okuse et al Antivir. Res. 2005, 65, p. 23, Blight et al Science 2000, 290, p. 1972, Korba and Gerin Antivir. Res. 1992, 19, p. 55). Huh-7 cells containing HCV Con 1 subgenomic replicon (GS4.1 cells) were grown in Dulbecco's Modified Eagle Medium (DMEM) supplemented with 10% fetal bovine serum (FBS), 2 mM L-glutamine, 110 mg/L sodium pyruvate, 1× non-essential amino acids, 100 U/mL penicillin-streptomycin and 0.5 mg/mL G418 (Invitrogen). For dose-response testing, the cells were seeded in 96-well plates at 7.5×10^3 cells/well in a volume of […] and incubated at 37° C./5% CO2. […] The cells were incubated in the presence of compounds for 72 hours after which they are monitored for expression of the NS4A protein by enzyme-linked immunosorbent assay (ELISA). […] The reaction was stopped after 30 minutes with 2 N H2SO4 and the absorbance was read at 492 nm using a Sunrise Tecan spectrophotometer. EC50 values were determined from the % inhibition vs concentration data using a sigmoidal non-linear regression analysis based on four parameters with Tecan Magellan software. For cytotoxicity evaluation, GS4.1 cells are treated with compounds as described and cellular viability can be monitored using a Cell Titer 96 AQueous One Solution Cell Proliferation Assay (Promega). […]

pEC50, pIC50: −log10 of the molar value. Like-named read-outs stand apart in the source and are kept apart here.

A word on the IC50: it is the midpoint of a concentration-inhibition curve. For orientation: EC90 means the concentration at which the effect reaches the 90% level. Take `CC/C=C\C/C=C\C/C=C\C/C=C\C/C=C\CCCC(=O)NCCNP(=O)(OC[C@@H]1OC(n2ccc(N)nc2=O)CS1)Oc1ccccc1` (stereo partly drawn) [II-68]: the 50% inhibitory concentration (IC50) in the test with NF-κB (Mus musculus) was in the range of 50 to 200 µM. The EC90 in the test with HBV (HepG2 2.2.15, 240 h) is 82 nM.
As a reminder, the pIC50 is −log10 of the IC50, conventionally taken in molar units. In the case of `CC/C=C\C/C=C\C/C=C\C/C=C\C/C=C\C/C=C\CCC(=O)Nc1ccn([C@@H]2CS[C@H](CO)O2)c(=O)n1` [Example V-18, (4Z,7Z,10Z,13Z,16Z,19Z)—N-(1-((2R,5S)-2-(hydroxymethyl)-1,3-oxathiolan-5-yl)-2-oxo-1,2-dihydropyrimidin-4-yl)docosa-4,7,10,13,16,19-hexaenamide], the negative-log IC50 (pIC50) in the test on NF-κB (Mus musculus, RAW264.7, RAW 264.7 reporter cells, 200 ng/ml LPS, 3 hours, read-out: NF-kB inhibitory activity IC50) was under 3.70. Besides, in the test with HBV (240 h, HepG2 2.2.15 cells, extracellular HBV DNA, 10-day treatment), the EC90 came out at 81 nM. Also, the “IC50 HIV-1IIIB strain (nM)” value in the test on HIV-1IIIB strain was “+ ++”.
Regarding `C=C1[C@H](COP(=O)(NCCNC(=O)CCC/C=C\C/C=C\C/C=C\C/C=C\C/C=C\CC)OC)[C@@H](O)C[C@@H]1n1cnc2c(=O)nc(N)[nH]c21` (stereo partly drawn) [II-48, ((1R,3S,5S)-3-(2-amino-6-oxo-3H-purin-9(6H)-yl)-5-hydroxy-2-methylenecyclopentyl)methyl methyl (2-((5Z,8Z,11Z,14Z,17Z)-icosa-5,8,11,14,17-pentaenamido)ethyl)phosphoramidate], the concentration for half-maximal inhibition (IC50) in the test on NF-κB (Mus musculus) is 50 to 200 µM. In addition, the EC90 in the test on HBV (HepG2 2.2.15, 240 h) was 7 nM.
One may read the pEC50 as −log10 of the EC50, conventionally taken in molar units. A low value points to a high EC50. As to `CC/C=C\C/C=C\C/C=C\C/C=C\C/C=C\C/C=C\CCC(=O)NCCNP(=O)(OC[C@H]1O[C@@H](n2ccc(=O)[nH]c2=O)[C@](C)(F)[C@@H]1O)Oc1ccccc1` (stereo partly drawn) [II-1, ((2R,3R,4R,5R)-5-(2,4-dioxo-3,4-dihydropyrimidin-1(2H)-yl)-4-fluoro-3-hydroxy-4-methyltetrahydrofuran-2-yl)methyl phenyl (2-((4Z,7Z,10Z,13Z,16Z,19Z)-docosa-4,7,10,13,16,19-hexaenamido)ethyl) phosphoramidate], the pEC50 in test [1] was 6.11.
Take `CC/C=C\C/C=C\C/C=C\C/C=C\C/C=C\C/C=C\CCC(=O)NCCNP(=O)(OC[C@@H]1O[C@H](n2ccc(N)nc2=O)CS1)Oc1ccccc1` (stereo partly drawn) [II-67, ((2R,5S)-5-(4-amino-2-oxopyrimidin-1(2H)-yl)-1,3-oxathiolan-2-yl)methyl phenyl (2-((4Z,7Z,10Z,13Z,16Z,19Z)-docosa-4,7,10,13,16,19-hexaenamido)ethyl)phosphoramidate]: at NF-κB (RAW 264.7 reporter cells, 200 ng/ml LPS, 3 hours), the “NF-kB inhibitory activity IC50 μM” value is recorded as “+ +”. Further, the EC90 in the test with HBV (HepG2 2.2.15, 240 h) was 75 nM. Besides, the concentration for half-maximal inhibition (IC50) with HIV-1IIIB strain (Human immunodeficiency virus 1, IIIB, CEM-SS, 144 h, read-out: IC50 HIV-1IIIB strain (nM)) was under 100 nM.
As to `CC/C=C\C/C=C\C/C=C\C/C=C\C/C=C\C/C=C\CCC(=O)NCCNC(=O)OC[C@@H]1O[C@H](n2ccc(N)nc2=O)CS1` [Example V-21, ((2R,5S)-5-(4-amino-2-oxopyrimidin-1(2H)-yl)-1,3-oxathiolan-2-yl)methyl (2-((4Z,7Z,10Z,13Z,16Z,19Z)-docosa-4,7,10,13,16,19-hexaenamido)ethyl)carbamate], the concentration for half-maximal inhibition (IC50) in the test with NF-κB (Mus musculus) was in the range of 50 to 200 µM. For the same molecule, in the test on HBV (HepG2 2.2.15, 240 h), the 90% effect concentration (EC90) was determined as 79 nM. The “IC50 HIV-1IIIB strain (nM)” value with HIV-1IIIB strain is recorded as “+ ++”.
As for `C=C1[C@H](COP(=O)(NCCNC(=O)CC/C=C\C/C=C\C/C=C\C/C=C\C/C=C\C/C=C\CC)OC)[C@@H](O)C[C@@H]1n1cnc2c(=O)nc(N)[nH]c21` (stereo partly drawn) [II-46, ((1R,3S,5S)-3-(2-amino-6-oxo-3H-purin-9(6H)-yl)-5-hydroxy-2-methylenecyclopentyl)methyl methyl (2-((4Z,7Z,10Z,13Z,16Z,19Z)-docosa-4,7,10,13,16,19-hexaenamido)ethyl)phosphoramidate], the EC90 with HBV (HepG2 2.2.15, 240 h) was 7 nM.

These data come from patent publication US20140288025A1, “FATTY ACID ANTIVIRAL CONJUGATES AND THEIR USES” (Catabasis Pharmaceuticals, Inc., priority 2013, published 2014).
